Data taken from paper PMC9403976, “Elucidating the path to Plasmodium prolyl-tRNA synthetase inhibitors that overcome halofuginone resistance” (Nature Communications, 2022).
Several values for one entry are separate records, joined by “and”; a condition that tells them apart may be missing. Identical values can stand only once. Like-named read-outs stand apart in the source and are kept apart here.

Key:
PfcProRS = molecular target: T1, PfcProRS (Plasmodium falciparum, UniProt Q8I5R7); type: binding; settings: single replicates
T1 construct: made in house; host or cells: E. coli SoluBL-21

HsProRS = HsProRS (Homo sapiens, UniProt P07814); experiment: TR-FRET ligand displacement assay with tracer MAT379 (CoraFluor-1-Halo and anti-His6 antibody formats); type: binding; parameters: made in house; host or cells: E. coli SoluBL-21; settings: for TR-FRET dose-response, normalized signal (SI Fig 11): individual replicates
Chain of HsProRS (P07814 996-1512): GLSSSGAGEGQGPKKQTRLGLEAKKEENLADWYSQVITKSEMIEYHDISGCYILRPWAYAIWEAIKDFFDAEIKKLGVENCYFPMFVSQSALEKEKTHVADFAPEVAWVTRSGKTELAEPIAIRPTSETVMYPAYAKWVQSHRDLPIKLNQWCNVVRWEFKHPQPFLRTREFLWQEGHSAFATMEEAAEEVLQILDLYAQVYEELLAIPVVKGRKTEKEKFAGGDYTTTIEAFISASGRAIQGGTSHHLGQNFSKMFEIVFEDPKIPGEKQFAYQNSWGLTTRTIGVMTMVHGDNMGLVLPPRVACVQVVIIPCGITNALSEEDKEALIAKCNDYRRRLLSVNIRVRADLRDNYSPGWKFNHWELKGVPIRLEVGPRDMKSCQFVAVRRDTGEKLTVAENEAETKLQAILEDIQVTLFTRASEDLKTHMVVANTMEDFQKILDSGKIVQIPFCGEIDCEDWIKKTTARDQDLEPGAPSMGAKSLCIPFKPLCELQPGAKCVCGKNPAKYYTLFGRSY

T1 sequence (Q8I5R7 249-746): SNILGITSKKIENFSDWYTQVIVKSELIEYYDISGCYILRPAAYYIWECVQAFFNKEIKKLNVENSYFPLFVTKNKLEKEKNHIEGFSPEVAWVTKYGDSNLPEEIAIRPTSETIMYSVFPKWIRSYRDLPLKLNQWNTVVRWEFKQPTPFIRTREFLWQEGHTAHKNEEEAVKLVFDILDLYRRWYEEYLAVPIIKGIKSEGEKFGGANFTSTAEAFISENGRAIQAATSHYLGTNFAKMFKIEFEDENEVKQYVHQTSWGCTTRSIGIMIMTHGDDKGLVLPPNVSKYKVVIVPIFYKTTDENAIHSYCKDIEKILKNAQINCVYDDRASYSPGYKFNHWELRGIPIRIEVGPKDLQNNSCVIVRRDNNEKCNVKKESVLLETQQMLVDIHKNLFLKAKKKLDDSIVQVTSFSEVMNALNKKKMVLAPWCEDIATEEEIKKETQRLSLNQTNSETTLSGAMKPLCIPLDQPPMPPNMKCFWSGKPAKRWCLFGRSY

SMILES: NC1CCN(C(=O)Nc2nccnc2C(=O)NC2Cc3ccccc3C2)CC1 [compound 8]
- dose-response signal (normalized), SI Fig 8 (PfcProRS; Log[inhibitor] (M) -5.000): 9.61E-01 and 8.92E-01 and 8.44E-01
- dose-response signal (normalized), SI Fig 8 (PfcProRS; Log[inhibitor] (M) -5.301): 8.74E-01 and 9.88E-01 and 9.73E-01
- dose-response signal (normalized), SI Fig 8 (PfcProRS; Log[inhibitor] (M) -5.601): 9.98E-01 and 1.02E+00 and 1.04E+00
- dose-response signal (normalized), SI Fig 8 (PfcProRS; Log[inhibitor] (M) -5.904): 1.08E+00 and 1.04E+00 (2×)
- dose-response signal (normalized), SI Fig 8 (PfcProRS; Log[inhibitor] (M) -6.208): 1.22E+00 and 1.03E+00 and 1.05E+00
- dose-response signal (normalized), SI Fig 8 (PfcProRS; Log[inhibitor] (M) -6.509): 1.14E+00 and 1.03E+00 and 1.04E+00
- dose-response signal (normalized), SI Fig 8 (PfcProRS; Log[inhibitor] (M) -6.796): 1.01E+00 and 1.02E+00 and 1.08E+00
- dose-response signal (normalized), SI Fig 8 (PfcProRS; Log[inhibitor] (M) -7.108): 9.50E-01 and 9.64E-01 and 1.00E+00
- dose-response signal (normalized), SI Fig 8 (PfcProRS; Log[inhibitor] (M) -7.409): 1.03E+00 and 1.01E+00 and 1.12E+00
- dose-response signal (normalized), SI Fig 8 (PfcProRS; Log[inhibitor] (M) -7.710): 1.12E+00 and 1.00E+00 and 9.44E-01
- dose-response signal (normalized), SI Fig 8 (PfcProRS; Log[inhibitor] (M) -8.000): 1.00E+00 and 9.85E-01 and 1.03E+00
- dose-response signal (normalized), SI Fig 8 (PfcProRS; Log[inhibitor] (M) -8.301): 1.00E+00 and 9.83E-01 and 1.01E+00
- dose-response signal (normalized), SI Fig 8 (PfcProRS; Log[inhibitor] (M) -8.602): 1.04E+00 (2×) and 1.03E+00
- dose-response signal (normalized), SI Fig 8 (PfcProRS; Log[inhibitor] (M) -9.000): 9.59E-01 and 1.02E+00 and 1.11E+00
- dose-response signal (normalized), SI Fig 8 (PfcProRS; Log[inhibitor] (M) -9.301): 9.77E-01 and 1.08E+00 and 1.13E+00
- IC50 (HsProRS): > 10 µM
- HsProRS % signal at 10 μM, + 100 μM proline (HsProRS; + 100 μM proline, 10 μM): 64.1%
- normalized TR-FRET ligand displacement signal, dose-response replicates (SI Fig 6) (HsProRS; Log[inhibitor] (M) -5.000): 7.72E-01 and 8.67E-01 and 9.20E-01
- TR-FRET dose-response, normalized signal (SI Fig 11) (HsProRS; Log[inhibitor] (M) -5.000): 7.80E-01 and 8.21E-01 and 8.27E-01
- normalized TR-FRET ligand displacement signal, dose-response replicates (SI Fig 6) (HsProRS; Log[inhibitor] (M) -5.301): 9.51E-01 and 8.63E-01 and 8.95E-01
- TR-FRET dose-response, normalized signal (SI Fig 11) (HsProRS; Log[inhibitor] (M) -5.301): 9.22E-01 and 8.53E-01 and 9.03E-01
- normalized TR-FRET ligand displacement signal, dose-response replicates (SI Fig 6) (HsProRS; Log[inhibitor] (M) -5.601): 9.39E-01 and 9.19E-01 and 9.88E-01
- TR-FRET dose-response, normalized signal (SI Fig 11) (HsProRS; Log[inhibitor] (M) -5.601): 8.79E-01 and 9.90E-01 and 8.75E-01
- normalized TR-FRET ligand displacement signal, dose-response replicates (SI Fig 6) (HsProRS; Log[inhibitor] (M) -5.904): 9.40E-01 and 9.19E-01 and 1.05E+00
- TR-FRET dose-response, normalized signal (SI Fig 11) (HsProRS; Log[inhibitor] (M) -5.904): 9.88E-01 and 9.41E-01 and 9.72E-01
- normalized TR-FRET ligand displacement signal, dose-response replicates (SI Fig 6) (HsProRS; Log[inhibitor] (M) -6.208): 8.89E-01 and 1.04E+00 and 1.05E+00
- TR-FRET dose-response, normalized signal (SI Fig 11) (HsProRS; Log[inhibitor] (M) -6.208): 9.38E-01 (2×) and 9.73E-01
- normalized TR-FRET ligand displacement signal, dose-response replicates (SI Fig 6) (HsProRS; Log[inhibitor] (M) -6.509): 1.02E+00 and 9.90E-01 and 9.84E-01
- TR-FRET dose-response, normalized signal (SI Fig 11) (HsProRS; Log[inhibitor] (M) -6.509): 9.67E-01 and 9.58E-01 and 9.39E-01
- normalized TR-FRET ligand displacement signal, dose-response replicates (SI Fig 6) (HsProRS; Log[inhibitor] (M) -6.796): 1.02E+00 and 1.08E+00 and 1.11E+00
- TR-FRET dose-response, normalized signal (SI Fig 11) (HsProRS; Log[inhibitor] (M) -6.796): 9.44E-01 and 9.26E-01 and 9.45E-01
- normalized TR-FRET ligand displacement signal, dose-response replicates (SI Fig 6) (HsProRS; Log[inhibitor] (M) -7.108): 1.06E+00 and 1.03E+00 and 1.02E+00
- TR-FRET dose-response, normalized signal (SI Fig 11) (HsProRS; Log[inhibitor] (M) -7.108): 8.82E-01 and 8.87E-01 and 8.97E-01
- normalized TR-FRET ligand displacement signal, dose-response replicates (SI Fig 6) (HsProRS; Log[inhibitor] (M) -7.409): 1.03E+00 (2×) and 9.94E-01
- TR-FRET dose-response, normalized signal (SI Fig 11) (HsProRS; Log[inhibitor] (M) -7.409): 8.83E-01 and 9.01E-01 and 8.97E-01
- normalized TR-FRET ligand displacement signal, dose-response replicates (SI Fig 6) (HsProRS; Log[inhibitor] (M) -7.710): 9.60E-01 and 1.05E+00 and 1.02E+00
- TR-FRET dose-response, normalized signal (SI Fig 11) (HsProRS; Log[inhibitor] (M) -7.710): 9.46E-01 and 8.63E-01 and 9.47E-01
- normalized TR-FRET ligand displacement signal, dose-response replicates (SI Fig 6) (HsProRS; Log[inhibitor] (M) -8.000): 8.80E-01 and 1.08E+00 and 9.66E-01
- TR-FRET dose-response, normalized signal (SI Fig 11) (HsProRS; Log[inhibitor] (M) -8.000): 9.68E-01 and 9.54E-01 and 9.46E-01
- normalized TR-FRET ligand displacement signal, dose-response replicates (SI Fig 6) (HsProRS; Log[inhibitor] (M) -8.301): 9.78E-01 and 9.63E-01 and 8.97E-01
- TR-FRET dose-response, normalized signal (SI Fig 11) (HsProRS; Log[inhibitor] (M) -8.301): 9.20E-01 and 9.17E-01 and 9.26E-01
- normalized TR-FRET ligand displacement signal, dose-response replicates (SI Fig 6) (HsProRS; Log[inhibitor] (M) -8.602): 9.99E-01 and 9.46E-01 and 8.78E-01
- TR-FRET dose-response, normalized signal (SI Fig 11) (HsProRS; Log[inhibitor] (M) -8.602): 9.38E-01 and 9.59E-01 and 9.18E-01
- normalized TR-FRET ligand displacement signal, dose-response replicates (SI Fig 6) (HsProRS; Log[inhibitor] (M) -9.000): 8.55E-01 and 9.99E-01 and 1.05E+00
- TR-FRET dose-response, normalized signal (SI Fig 11) (HsProRS; Log[inhibitor] (M) -9.000): 9.56E-01 and 9.64E-01 and 9.58E-01
- normalized TR-FRET ligand displacement signal, dose-response replicates (SI Fig 6) (HsProRS; Log[inhibitor] (M) -9.301): 1.04E+00 and 8.74E-01 and 1.01E+00
- TR-FRET dose-response, normalized signal (SI Fig 11) (HsProRS; Log[inhibitor] (M) -9.301): 9.54E-01 and 1.00E+00 (2×)
- HsProRS % signal at 10 μM (HsProRS; no added proline/ATP (-), 10 μM): 81.0%
- IC50 (HsProRS; read-out: HsProRS IC50 + 100 μM proline, + 100 μM proline): > 10 µM
